For 32 compounds, IC50 results are on record in patent US8946446B2, “Pyrrolo sulfonamide compounds for modulation of orphan nuclear receptor RAR-related orphan receptor-γ (ROR-γ, NR1F3) activity and for the treatment of chronic inflammatory and autoimmune diseases” (Phenex Pharmaceuticals AG, priority 2011, dated 2015).

Usually pIC50 stands for the negative decadic logarithm of the IC50, by convention in mol/L.

pIC50: −log10 of the molar value.

One assay addresses T1, RORγ ligand binding domain (LBD) (Homo sapiens, UniProt P51449).
T1 construct: made in house; host or cells: E. coli BL-21 (BL3), vector pDEST15
T1 sequence (P51449 269-508 limits assumed): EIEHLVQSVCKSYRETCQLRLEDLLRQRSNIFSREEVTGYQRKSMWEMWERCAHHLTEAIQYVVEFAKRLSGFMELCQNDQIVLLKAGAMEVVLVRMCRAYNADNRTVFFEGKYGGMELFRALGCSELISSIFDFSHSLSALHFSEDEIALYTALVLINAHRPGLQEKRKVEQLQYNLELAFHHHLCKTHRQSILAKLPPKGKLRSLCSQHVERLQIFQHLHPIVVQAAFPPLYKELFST
Put plainly: TR-FRET Activity Assay (ligand sensing, RORγ-LBD / coactivator peptide interaction).
Details: not given
In kind it is biochemical. The text has this: This method measures the ability of putative ligands to modulate the interaction between the purified bacterial expressed RORγ ligand binding domain (LBD) and synthetic N-terminally biotinylated peptides which are derived from nuclear receptor coactivator proteins such as but not limited to SRC1 (NcoA1), SRC2 (NcoA2, TIF2), SRC3 (NcoA3), PGC1α, PGC1β, CBP, GRIP1, TRAP220, RIP140.
The ligand-binding domain (LBD) of RORγ was expressed as fusion protein with GST in […] cells using the vector pDEST15. Cells were lysed by lysozyme-treatment and sonication, and the fusion proteins purified over glutathione sepharose (Pharmacia) according to the manufacturers instructions. For screening of compounds for their influence on the RORγ-peptide interaction, the LANCE technology (Perkin Elmer) was applied. This method relies on the binding dependent energy transfer from a donor to an acceptor fluorophor attached to the binding partner of interest. For ease of handling and reduction of background from compound fluorescence LANCE technology makes use of generic fluorophore labels and time resolved detection assays were done in a final volume of 25 μL in a 384 well plate, in a Tris-based buffer system (20 mM Tris-HCl pH6.8; 60 mM KCl, 1 mM DTT; 5 mM MgCl2; 35 ng/μL BSA), containing 20-60 ng/well recombinantly expressed RORγ-LBD fused to GST, 200-600 nM N-terminally biotinylated peptide, 200 ng/well Streptavidin-xIAPC conjugate (Prozyme) and 6-10 ng/well Eu W1024-antiGST (Perkin Elmer). DMSO content of the samples was kept at 1%.
After generation of the Tris-based buffer system, the potentially RORγ modulating ligands were diluted. […] The LANCE signal was detected by a Perkin Elmer EnVision™ Multilabel Counter. The results were visualized by plotting the ratio between the emitted light at 665 nm and 615 nm. […] Ligands that promote the complex formation induce a concentration-dependent increase in time-resolved fluorescent signal.
The normalised TR-FRET assay values, using the following equation: 1000*665 nm measurement value/615 nm measurement value, were transferred to the program GraphPad Prism to generate graphs and dose response curves using the following equation:
Equation: Sigmoidal Dose-Response (Variable Slope) Y=Bottom+(Top-Bottom)/(1+10^((LogEC50−X)*HillSlope)) X is the logarithm of the concentration. Y is the response. Y starts at Bottom and goes to Top with a sigmoidal shape.
This is identical to the “four parameter logistic equation”. The IC50 values are calculated using this equation.
(In TR-FRET formats the signal depends on donor and acceptor labels being close together.)
Regarding `Cc1c(S(=O)(=O)NCC(C)(C)O)cc(-c2cc(C(C)(C)C)cc(C(C)(C)C)c2)n1CC1CCCCC1` [2/5], the pIC50 was more than 6.30.
Turning to `CC(=NO)c1cc(-c2cc(S(N)(=O)=O)c(C)n2CC2CCCCC2)cc(C(C)(C)C)c1` [Example 6, 5-(3-(tert-Butyl)-5-(1-(hydroxyimino)ethyl)phenyl)-1-(cyclohexylmethyl)-2-methyl-1H-pyrrole-3-sulfonamide], the pIC50 is 5.70 to 6.30.
On the same count and under the same terms, the result for `Cc1c(S(N)(=O)=O)cc(-c2cc(C(C)(C)C)cc(C(C)(C)CO)c2)n1CC1CCCCC1` [Example 50] reads less than 5.70; that for `Cc1c(S(N)(=O)=O)cc(-c2cc(C(C)(C)C)c(OCC(=O)O)c(C(C)(C)C)c2)n1CC1CCCCC1` [16/9], less than 5.70.

Still in this assay, the particulars now being: read-out: RORγ activity in the TR-FRET Activity Assay (IC50 FRET), Group.
Take `Cc1c(S(N)(=O)=O)cc(-c2cc(C3(C)CC3)cc(C3(C)CC3)c2)n1CC1CCCCC1` [12/40]: the pIC50 was more than 6.30.
Still for that read-out and setting: the result for `Cn1c(S(N)(=O)=O)cc(-c2cc(C(C)(C)C)cc(C(C)(C)C)c2)c1CC1CCCCC1` [Example 25, 5-(Cyclohexylmethyl)-4-(3,5-di-tert-butylphenyl)-1-methyl-1H-pyrrole-2-sulfonamide] reads less than 5.70; that for `CCOc1cc(-c2cc(S(N)(=O)=O)c(C)n2CC2CCCCC2)cc(C(C)(C)C)n1` [17/2], 5.70 to 6.30.
The same measure, in the same setting: the result for `Cc1c(S(=O)(=O)NC2CC2)cc(-c2cc(C(C)(C)C)cc(C(C)(C)C)c2)n1CC1CCCCC1` [Example 3, 1-(Cyclohexylmethyl)-N-cyclopropyl-5-(3,5-di-tert-butylphenyl)-2-methyl-1H-pyrrole-3-sulfonamide] reads more than 6.30; that for `Cc1c(S(N)(=O)=O)cc(-c2cc3c(c(C(C)(C)C)c2)OCCC3O)n1CC1CCCCC1` (centres unmarked) [12/45], less than 5.70.
The same measure, in the same setting: the result for `Cc1c(S(N)(=O)=O)cc(-c2cc3c(c(C(C)(C)C)c2)OCCC3=O)n1CC1CCCCC1` [12/28] reads 5.70 to 6.30.
For the compound `Cc1c(S(N)(=O)=O)cc(-c2cc(C(C)(C)C)cc(C(C)(C)CN)c2)n1CC1CCCCC1` [Example 48, 5-(3-(1-Amino-2-methylpropan-2-yl)-5-(tert-butyl)phenyl)-1-(cyclohexyl-methyl)-2-methyl-1H-pyrrole-3-sulfonamide], the pIC50 is less than 5.70.
On the same count and under the same terms, the value for `COCCOc1cc(-c2cc(S(N)(=O)=O)c(C)n2CC2CCCCC2)cc(C(C)(C)C)n1` [17/4] was 5.70 to 6.30; that for `Cc1c(S(N)(=O)=O)cc(-c2ccc(S(=O)(=O)N3CCC3(C)C)c(C(C)(C)C)c2)n1CC1CCCCC1` [1/24] was more than 6.30; that for `Cc1c(S(N)(=O)=O)cc(-c2cc(C(C)(C)C)cc(C(C)(C)C)c2)n1CC1CCOCC1` [1/20] was less than 5.70.
`Cc1c(S(N)(=O)=O)cc(-c2cccc(S(=O)(=O)N(C)C(C)(C)C)c2)n1CC1CCCCC1` [1/17]: the pIC50 is less than 5.70.
Still for that read-out and setting: the value for `COc1cc(-c2cc(S(N)(=O)=O)c(C)n2CC2CCCCC2)cc(C(C)(C)C)n1` [17/1] was less than 5.70; that for `Cc1c(S(N)(=O)=O)cc(-c2ccc3c(c2)C(C)(C)CN(C(C)C)S3(=O)=O)n1CC1CCCCC1` [12/18] was less than 5.70.
With `COCCOc1c(C(C)(C)C)cc(-c2cc(S(N)(=O)=O)c(C)n2CC2CCCCC2)cc1C(C)(C)C` [16/11], the pIC50 is 5.70 to 6.30.
For `Cc1c(S(N)(=O)=O)cc(-c2cc(C(C)C)c3c(c2)C(C)(C)NS3(=O)=O)n1CC1CCCCC1` [12/17], the pIC50 is less than 5.70.
Still for that read-out and setting: the value for `Cc1c(S(N)(=O)=O)cc(-c2ccc(S(=O)(=O)N3CCCCC3(C)C)c(C(F)(F)F)c2)n1CC1CCCCC1` [22/9] was 5.70 to 6.30; that for `Cc1c(S(N)(=O)=O)cc(-c2cc(C(C)(C)C)cc(C(C)(C)C)c2)n1CC1CCCCC1` [Example 1, 1-(Cyclohexylmethyl)-5-(3,5-di-tert-butylphenyl)-2-methyl-1H-pyrrole-3-sulfonamide] was more than 6.30; that for `Cc1c(S(N)(=O)=O)cc(-c2cc(OCC(C)C)nc(C(C)(C)C)c2)n1CC1CCCCC1` [Example 17, 5-(2-tert-Butyl-6-isobutoxypyridin-4-yl)-1-(cyclohexylmethyl)-2-methyl-1H-pyrrole-3-sulfonamide] was more than 6.30.
Same read-out and setting: the value for `Cc1c(S(=O)(=O)NCCC(N)=O)cc(-c2cc(C(C)(C)C)cc(C(C)(C)C)c2)n1CC1CCCCC1` [Example 40, 3-(1-(cyclohexylmethyl)-5-(3,5-di-tert-butylphenyl)-2-methyl-1H-pyrrole-3-sulfonamido)propanamide] was more than 6.30; that for `Cc1c(S(N)(=O)=O)cc(-c2cc(C(C)(C)C)cc(C(C)(F)F)c2)n1CC1CCCCC1` [Example 7, 5-(3-(tert-Butyl)-5-(1,1-difluoroethyl)phenyl)-1-(cyclohexylmethyl)-2-methyl-1H-pyrrole-3-sulfonamide] was more than 6.30; that for `Cc1c(S(N)(=O)=O)cc(-c2cc(C(=O)NCC(C)C)cc(C(C)(C)C)c2)n1CC1CCCCC1` [Example 13, 3-(tert-Butyl)-5-(1-(cyclohexylmethyl)-5-methyl-4-sulfamoyl-1H-pyrrol-2-yl)-N-isobutylbenzamide] was 5.70 to 6.30.
The same measure, in the same setting: the value for `Cc1c(S(=O)(=O)NCC(C)(C)C(=O)O)cc(-c2ccc(S(=O)(=O)NC(C)(C)C)c(C(C)(C)C)c2)n1CC1CCCCC1` [Example 11, 3-(5-(3-(tert-Butyl)-4-(N-(tert-butyl)sulfamoyl)phenyl)-1-(cyclohexylmethyl)-2-methyl-1H-pyrrole-3-sulfonamido)-2,2-dimethylpropanoic acid] was less than 5.70; that for `Cc1c(S(N)(=O)=O)cc(-c2cc(C(C)(C)C)c(F)c(C(C)(C)C)c2)n1CC1CCCCC1` [12/39] was more than 6.30.
With `Cc1c(S(N)(=O)=O)cc(-c2ccc(S(=O)(=O)NC(C)(C)CCO)c(C(F)(F)F)c2)n1CC1CCCCC1` [12/31], the pIC50 was 5.70 to 6.30.
Consider `CCC(C)(C)NS(=O)(=O)c1ccc(-c2cc(S(N)(=O)=O)c(C)n2CC2CCCCC2)cc1C(F)(F)F` [22/6], for which the pIC50 was more than 6.30.
Same read-out and setting: the value for `Cc1c(S(=O)(=O)NCc2nc(C(=O)O)co2)cc(-c2cc(C(C)(C)C)cc(C(C)(C)C)c2)n1CC1CCCCC1` [5/5] was 5.70 to 6.30; that for `CC(C)(C)c1cc(-c2c(Br)c(S(N)(=O)=O)c(Br)n2CC2CCCCC2)cc(C(C)(C)C)c1` [Example 32, 2,4-Dibromo-1-(cyclohexylmethyl)-5-(3,5-di-tert-butylphenyl)-1H-pyrrole-3-sulfonamide] was 5.70 to 6.30.
On to `COc1cc(-c2cc(S(N)(=O)=O)c(C)n2CC2CCCCC2)cc(C(C)(C)C)c1` [16/1], for which the pIC50 is less than 5.70.
